According to paper PMC8004929, “Whole-Body Pharmacokinetics and Physiologically Based Pharmacokinetic Model for Monomethyl Auristatin E (MMAE)” (Journal of Clinical Medicine, 2021):
Read-outs that look alike come from different tables or passages of the source. Square brackets hold non-standard residues; d marks the D form. Peptide text beside a SMILES is read from it. * marks the point of attachment. Dolaproine = CO[C@@H]([C@@H]1CCCN1)[C@@H](C)C(=O)O; Dil = CC[C@H](C)[C@H](NC)[C@@H](CC(=O)O)OC; X1 = C[C@@H](N*)[C@@H](O)c1ccccc1; NMeV = CN[C@H](C(=O)O)C(C)C

Assays:
[1] = PBPK model fitting and parameter estimation for MMAE; conditions: PBPK model estimate (CV%), mice, 0.1 mg/kg i.v.
From the text: The PBPK model included 16 tissues and a tumor compartment, and all of them were connected via blood flow and arranged anatomically. The tissue compartments included blood, lung, heart, kidney, muscle, skin, liver, brain, adipose, thymus, bone, small intestine, large intestine, spleen, pancreas, and other (i.e., carcass). All the other tissues, except those mentioned, were lumped into the ‘other’ compartment. The arterial blood to each organ was delivered by the efferent blood supplied from the lung, which perfused to each organ and then converged into the blood compartment, which represents the venous pool. Venous blood returned from the small intestine, large intestine, spleen, and pancreas were delivered to the liver. For the intestines, spleen, and pancreas, blood was delivered to the liver via the hepatic portal vein and mixed with liver artery blood after leaving the tissues. The delivery of the blood from the blood compartment to the lung completed the circulation of the flow. Based on in vitro, preclinical, and clinical data, the elimination of MMAE was assumed to be predominantly through the CYP3A4/5-mediated metabolic pathway and biliary/fecal excretion. Limited renal excretion (<10%) of MMAE has been reported. Therefore, we assumed that MMAE was eliminated solely via hepatic clearance (CL) from the liver interstitial space.
Each tissue compartment was further divided into the vascular, endothelial cell, interstitial, and cellular sub-compartments, and vascular space was divided into plasma and blood cells, as shown in Figure 1b. We aimed to make the sub-compartment division the same as our previously published platform antibody PBPK model, and thus, one can easily connect MMAE and an antibody PBPK model to build an ADC PBPK model. The rapid distribution of MMAE between plasma, endothelial cells, and interstitial space was assumed, and thus, the distribution rate between these compartments was set as a value 1000 times higher than the value of blood flow in each tissue. […] The partitioning of MMAE to the blood cells or cellular space was characterized using the KP values. The calculated KP values were adjusted for the ratios of cellular space volume to total tissue volume by dividing KP values with the ratio in each tissue. […] Only free MMAE was assumed to diffuse through the cellular membrane, and thus, the fraction of unbound drug in blood cells or tissue cellular space ( fu,t ) was calculated using Equation (2). (2) fu,t=fu,p/KP,i,
Equations (3) and (4) describe blood cell and plasma concentrations of MMAE, respectively. Equations that described MMAE concentration in the liver (Equations (5)–(9)), lung (Equations (10)–(14)), a typical tissue (Equations (15)–(19)), and tumor (Equations (20)–(23)) are provided below. In these equations, Qplasmai and QBClung are plasma flow and blood cell flow to the tissue i. Vplasma and VBC are volumes of central plasma and blood cell compartments. Vplasmai , VBCi , Vendoi , VISi , and Vcellulari are volumes of vascular, blood cell, endosomal, interstitial, and cellular compartments for tissue i. Cplasma and CBC are MMAE concentration in systemic plasma and blood cell compartments. Cplasmai , CBCi , Cendoi , CISi , and Ccellulari are MMAE concentration in vascular, blood cell, endosomal, interstitial, and cellular compartments of tissue i. PSBC is the permeability coefficient for the blood cell sub-compartment.
Physiological parameters for mice were obtained from our previously published PBPK model. Radius of the tumor blood capillary ( Rcap ), average distance between two capillaries ( Rkrough ), tumor void volume for MMAE ( ε ), P, D, and efflux rate of MMAE from the cells ( kout ) were obtained from the literature. […]

[2] = cited from earlier work
Description: The PBPK model well captured the PK in plasma, tissues, and tumor simultaneously. CLint was estimated with good precision (%CV = 8.92), and the optimized value was 137 mL/h. […] About 80% of MMAE excretes via feces, and only 6% excretes via urine. Therefore, we assumed that MMAE was eliminated only via metabolism and biliary/fecal excretion from the liver. […] For the derivation of CLint based on in vitro data, the CLint, vitro were estimated using human hepatocyte (3 µL/min/10^6 cells) and human ...

tumor cells = assay: Cell-level tumor disposition model parameters; design: species or system mice; conditions: Estimated by PBPK model
From the text: Characterization and prediction of MMAE concentration at the site of action (i.e., tumor) is essential to establish a reliable exposure–efficacy relationship. Therefore, a cell-level tumor disposition model was incorporated in the MMAE PBPK model. […] Both pathways also depended on the vascular density and tumor size (Equation (20)). MMAE in the tumor extracellular space can influx into the tumor cell and bind to the tubulin. The tubulin-bound MMAE can dissociate from the target and efflux from tumor intracellular space into the extracellular space.
Physiological parameters for mice were obtained from our previously published PBPK model. Radius of the tumor blood capillary ( Rcap ), average distance between two capillaries ( Rkrough ), tumor void volume for MMAE ( ε ), P, D, and efflux rate of MMAE from the cells ( kout ) were obtained from the literature. […] The estimated parameters included (1) permeability coefficient ( PSi) in all tissues except the intestines, thymus, and other compartments for which observed data were not available, (2) intrinsic hepatic clearance ( CLint ), and (3) nonspecific uptake rate of MMAE into cancer cells ( kin) . The model was fitted to the data using the maximum likelihood estimation method in ADAPT version 5 (Biomedical Simulations Resource, University of Southern California, Los Angeles, CA, USA), using the variance model shown in Equation (23). […]

[3] = cited from earlier work; remark: listed apart in the source
Description: There are some limitations of our study. First, only one dose level of MMAE was used to build the PBPK model. However, the current 0.1 mg/kg MMAE dose can be high enough to saturate the target, and thus, linear PK can be assumed. […] As more data at lower dose levels become available, the PBPK model can be further refined to elaborate the MMAE–tubulin interaction. Second, the PK profile of free M ...

For `CC[C@H](C)[C@@H]([C@@H](CC(=O)N1CCC[C@H]1[C@H](OC)[C@@H](C)C(=O)N[C@H](C)[C@@H](O)c1ccccc1)OC)N(C)C(=O)[C@@H](NC(=O)[C@@H](NC)C(C)C)C(C)C` [MMAE, Monomethyl auristatin E] (H-[NMeV]V[Dil][Dolaproine]-X1), which “CLint (liver intrinsic clearance)” value [1] is on record?
The value was 137 (8.92) mL/h.

What about the “PSblood (permeability-surface area coefficient)” value ([1]; blood cells) of the same compound?
The value was 0.105 (12.6) mL/h.

And the “PSbone (permeability-surface area coefficient)” value ([1]; bone)?
The value was 0.568 (20.9) mL/h.

And the “PSbrain (permeability-surface area coefficient)” value ([1]; brain)?
Its value is 0.00825 (40.4) mL/h.

What about the “PSfat (permeability-surface area coefficient)” value ([1]; fat) of the same compound?
The value was 0.588 (23.5) mL/h.

And the “PSheart (permeability-surface area coefficient)” value ([1]; heart)?
Its value is 1.47 (17.1) mL/h.

What about the “PSkidney (permeability-surface area coefficient)” value ([1]; kidney) of the same compound?
The value was 14.2 (20.2) mL/h.

And the “PSliver (permeability-surface area coefficient)” value ([1]; liver)?
The value was 49.2 (48.4) mL/h.

And the “PSlung (permeability-surface area coefficient)” value ([1]; lung)?
The value was 2.47 (13.2) mL/h.

What about the “PSmuscle (permeability-surface area coefficient)” value ([1]; muscle) of the same compound?
The value was 3.16 (21.1) mL/h.

What about the “PSpancreas (permeability-surface area coefficient)” value ([1]; pancreas) of the same compound?
The value was 0.0657 (18.7) mL/h.

And the “PSskin (permeability-surface area coefficient)” value ([1]; skin)?
The value was 0.681 (30.6) mL/h.

What about the “PSspleen (permeability-surface area coefficient)” value ([1]; spleen) of the same compound?
The value was 0.457 (18.5) mL/h.

And the “in vitro CLint (CLint, vitro)” value ([2]; human liver hepatocyte)?
Its value is 3 µL/min/10^6 cells.

And the “in vitro CLint (CLint, vitro)” value ([2]; human liver microsome)?
Its value is 24 µL/min/mg.

And the “kin, first-order influx rate of MMAE from extracellular to intracellular space” value (tumor cells)?
The value was 0.185 h⁻¹.

What about the “dose that induced mortality” value ([3]; rats, single dose) of the same compound?
Its value is > 0.116 mg/kg.

What about the “single-dose no-observed-adverse-effect level (NOAEL)” value ([3]; rats) of the same compound?
The value was 0.01 mg/kg.

What about the “contribution of free MMAE to tissue total MMAE exposure following ADC administration” value ([3]; ref in-house data) of the same compound?
Its value is < 20%.
